Data reported in patent US20260273047A1, “COMPOSITIONS AND METHODS FOR AMELIORATING ADVERSE EFFECTS OF THERAPIES” (MDX Management LLC, priority 2023, published 2026).
Entries after “also recorded” stand apart in the source; their conditions may differ.

How the values were obtained:
[1] = test system: malignant melanoma and advanced malignancies; details: cited from earlier work
[2] = test system: MC38; test: MC38 tumors treated intratumorally with TPI-1 and T cell activating agents; type: in vivo, C57Bl/6 mice
Experimental: Inhibition of SHP-1 was tested in vivo for tumor therapies. […] Tumor growth was measured over time until the tumors reached 2.0 cm in diameters. […] Anti-PD-1 antibody was 205[…] 50 μg by intratumoral injection every 3 days. Anti-CD3 antibody and anti-CD28 antibody were each 205[…] 50 μg by intratumoral injection in a single dose.

[3] = test system: 4T1 breast cancer; type: in vivo; details: lotion twice a day; anti-PD-1 100 μg i.p. every three days; all groups prophylactic anti-TNFα mAb
Experimental: Efficacy of topical treatments against tumor growth and/or progression was tested using murine models of cutaneous/subcutaneous breast cancer. […] Palpable tumors were formed in 10-15 days and were traced by bioluminescence imaging. Tumor sizes were measured manually, and the volume was calculated by the equation=[length (mm)×width (mm)×width (mm)]/2. Once the total tumor volume reached ≥200 mm^3, treatments were started.
Treatment groups included: (i) Control treatment (ctl.), wherein mice received topical non-drug lotion (vehicle) only; (ii) αPD-1 treatment, wherein mice received topical non-drug lotion (vehicle) treatment along with 100 μg of anti-PD-1 monoclonal antibody once every three days through intraperitoneal injection; (iii) Topical treatment with TLR agonists only (i.e. Condition A), wherein mice received aTLR (Resiquimod (R848) and polyI:C) prepared in Johnson's lotion, each at 100 μg/ml in a final volume of 100-200 μL lotion: (iv) Topical treatment with SHP-1 inhibitors only (i.e. Condition B), wherein mice received deuterated TPI-1 (dTPI-1) at 100 μg/ml in a final volume of 100-200 μL lotion; (v) Topical treatment with Conditions A+B only in a final volume of 100-200 μL lotion; and (vi) Topical treatment with Conditions A+B in a final volume of 100-200 μL lotion and systemic αPD-1 treatment. […]

Structure (SMILES): O.O.O.O.O.O.O.O.O.O=C([O-])[C@@H]1[O][Sb]2([O-])([O][Sb]34([OH])[O][C@H]([C@H](O)CO)[C@H]([O]3)[C@H](C(=O)[O-])[O]4)[O][C@H]([C@H](O)CO)[C@@H]1[O]2.[Na+].[Na+].[Na+] [SSG, sodium stibogluconate]
- most common toxic side-effects, frequency ([1]; thrombocytopenia, elevated serum lipase, fatigue, fever, chills, anemia, hypokalemia, pancreatitis, skin rash): up to 68 % of patients
- effect against tumor development ([1]; with interferons, followed or not by chemotherapy): no effect was seen against tumor development

Structure (SMILES): O=C1C=CC(=O)C(c2cc(Cl)ccc2Cl)=C1 [TPI-1, 2-(2,5-dichlorophenyl)benzoquinone]
- effect of adding TPI-1 to αPD-1, IL-2, anti-CD3/CD28 or αPD-1+IL-2 ([2]; TPI-1 1 mg/kg every 2 days, 1 mg/kg): enabled the intratumoral injection of αPD-1, IL-2, or anti-CD3/CD28 to achieve strong anti-tumor effects; also recorded: instantly overcame treatment resistance
- effect on established tumors, such as MC38, KPC, or LLC ([2]; agent alone): only minor effects
- MC38 tumor growth / resistance ([2]; intratumoral, agent without SHP-1 inhibitor, or TPI-1 alone (1 mg/kg every 2 days)): did not attenuate tumor growth; also recorded: did not stop tumor progression

Structure (SMILES): [2H]C1=C([2H])C(=O)C(c2c([2H])c(Cl)c([2H])c([2H])c2Cl)=C([2H])C1=O [dTPI-1]
- 4T1 tumor growth / progression [3]: only slightly delayed tumor progression
